Test results: patent US20160002247A1, “8-SUBSTITUTED IMIDAZOPYRIMIDINONE DERIVATIVE HAVING AUTOTAXIN INHIBITORY ACTIVITY” (THE UNIVERSITY OF TOKYO, priority 2013, published 2016)

biological target: T1, Human autotaxin enzyme (Homo sapiens, UniProt Q13822); test: Evaluation of autotaxin inhibitor, Method B (Test Example 2): TG-mTMP fluorescence; type: biochemical; settings: Assay Method B (Test Example 2), human autotaxin; read-out: Inhibitory Activity (autotaxin enzyme inhibitory activity, IC50 class)
T1 construct: purchased R&D System
Experimental: (Method B) Evaluation of Autotaxin Inhibitor
Solution A containing 25 mM Tris-HCl buffer (pH7.5), 100 mM NaCl, 5 mM MgCl2 and 0.1% BSA was prepared. Human autotaxin enzyme (purchased from R&D System) was diluted with Solution A, and 5 μL of which was added to a solution of test compound in DMSO. Furthermore, 5 μl of 0.5 μM TG-mTMP in Solution A was added and allowed to react at room temperature for 2 hours. 5 μl of 150 mM EDTA in Solution A was added to quench the reaction, and the fluorescent dye TokyoGreen, which was produced by the reaction, was detected. The fluorescence was detected using ViewLux (PerkinElmer, Inc.) with an excitation wavelength of 480 nm and a fluorescence wavelength of 540 nm.

SMILES | IC50
CCCCCn1c(NCc2ccc(C(=O)OC)cc2)c(C)c(=O)n2cc(-c3ccc(Cl)cc3)nc12 [Compound 178, methyl 4-((2-(4-chlorophenyl)-6-methyl-5-oxo-8-pentyl-5,8-dihydroimidazo[1,2-a]pyrimidin-7-ylamino)methyl)benzoate] | < 10 nM
CCCCCn1c(C)c(CC(=O)O)c(=O)n2cc(-c3ccc(Cl)cc3)nc12 [Compound 179] | 10 to 100 nM
CCCCCn1c(C)c(CCC(=O)O)c(=O)n2cc(-c3ccc(Cl)cc3)nc12 [Compound 180] | < 10 nM
CCCCCn1c(C)c(CC(=O)NCC)c(=O)n2cc(-c3ccc(Cl)cc3)nc12 [Compound 181] | < 10 nM
CCCCCn1c(C)c(-c2ccccc2)c(=O)n2cc(-c3ccc(Cl)cc3)nc12 [Compound 182] | > 1000 nM
CCCCCn1c(C)c(C#CCO)c(=O)n2cc(-c3ccc(Cl)cc3)nc12 [Compound 183] | 10 to 100 nM
CCCCCn1c(C)c(C#N)c(=O)n2cc(-c3ccc(Cl)cc3)nc12 [Compound 184] | > 1000 nM
CCCCCn1c(C)c(C(=O)O)c(=O)n2cc(-c3ccc(Cl)cc3)nc12 [Compound 185] | 100 to 1000 nM
CCCCCn1ccc(=O)n2cc(-c3ccc(Cl)cc3)nc12 [Compound 186] | 10 to 100 nM
CCCCCn1c(N2CCCC2)cc(=O)n2cc(-c3ccc(Cl)cc3)nc12 [Compound 187] | 10 to 100 nM
CCCCCn1c(NCCC)cc(=O)n2cc(-c3ccc(Cl)cc3)nc12 [Compound 188] | 10 to 100 nM
CCCCCn1c(OCCC)cc(=O)n2cc(-c3ccc(Cl)cc3)nc12 [Compound 189] | 10 to 100 nM
CCCCCn1c(N2CCN(CCN3CCOCC3)CC2)cc(=O)n2cc(-c3ccc(Cl)cc3)nc12 [Compound 191] | < 10 nM
CCCCCn1c(OC2CCN(C)CC2)cc(=O)n2cc(-c3ccc(Cl)cc3)nc12 [Compound 193] | < 10 nM
CCCCCn1c(N(C)Cc2ccc(C(=O)OC)cc2)cc(=O)n2cc(-c3ccc(Cl)cc3)nc12 [Compound 195] | < 10 nM
CCCCCn1c(N2CCC2)cc(=O)n2cc(-c3ccc(Cl)cc3)nc12 [Compound 196] | < 10 nM
CCCCCn1c(C)c(NC(C)=O)c(=O)n2cc(-c3ccc(Cl)cc3)nc12 [Compound 199] | 10 to 100 nM
CCCCCn1c(C)c(CCC(=O)OCC)c(=O)n2cc(-c3ccc(Cl)cc3)nc12 [Compound 200] | < 10 nM
CCCCCOC(=O)CCc1c(C)n(CCCCC)c2nc(-c3ccc(Cl)cc3)cn2c1=O [Compound 201] | < 10 nM
CCCCCn1c(C)c(Cc2ccccc2)c(=O)n2cc(-c3ccc(Cl)cc3)nc12 [Compound 203] | 10 to 100 nM
CCCCCn1c(C)c(CCCC)c(=O)n2cc(-c3ccc(Cl)cc3)nc12 [Compound 204] | 100 to 1000 nM
CCCCCn1c(C)c(CC)c(=O)n2cc(-c3ccc(Cl)cc3)nc12 [Compound 205] | 10 to 100 nM
CCCCCn1c(C)c(F)c(=O)n2cc(-c3ccc(Cl)cc3)nc12 [Compound 206] | 10 to 100 nM
CCCCCn1c(C)c(C)c(=O)n2cc(-c3ccc(Cl)cc3)nc12 [Compound 208] | 10 to 100 nM
CCCCCn1c(C)c(NC(C)=O)c(=O)n2cc(-c3cccc(Cl)c3)nc12 [Compound 209] | 100 to 1000 nM
CCCCCn1c(C)c(CCC(=O)OCC)c(=O)n2cc(-c3cccc(Cl)c3)nc12 [Compound 210] | 100 to 1000 nM

SMILES | IC50
CCCCCn1c(C)c(Cc2ccccc2)c(=O)n2cc(-c3cccc(Cl)c3)nc12 [Compound 211] | > 1000 nM
CCCCCn1c(C)c(F)c(=O)n2cc(-c3cccc(Cl)c3)nc12 [Compound 212] | > 1000 nM
CCCCCn1c(C)c(CCO)c(=O)n2cc(-c3cccc(Cl)c3)nc12 [Compound 213] | 100 to 1000 nM
CCCCCn1c(C)c(CCOCC)c(=O)n2cc(-c3ccc(Cl)cc3)nc12 [Compound 214] | < 10 nM
CCCCCOC(=O)Cc1c(C)n(CCCCC)c2nc(-c3ccc(Cl)cc3)cn2c1=O [Compound 215] | < 10 nM
CCCCCn1c(C)c(CCOCC)c(=O)n2cc(-c3ccc(Cl)cc3)nc12 [Compound 216] | > 1000 nM
CCCCCOC(=O)CCc1c(C)n(CCCCC)c2nc(-c3ccc(Cl)cc3)cn2c1=O [Compound 217] | 100 to 1000 nM
CCCCCn1c(NCC(=O)O)cc(=O)n2cc(-c3ccc(Cl)cc3)nc12 [Compound 218] | 10 to 100 nM
CCCCCn1c(NCCO)cc(=O)n2cc(-c3ccc(Cl)cc3)nc12 [Compound 222] | 10 to 100 nM
CCCCCn1c(N2CCN(CCc3ccccc3)CC2)cc(=O)n2cc(-c3ccc(Cl)cc3)nc12 [Compound 223] | 10 to 100 nM
CCCCCn1c(NC2CCCC2)cc(=O)n2cc(-c3ccc(Cl)cc3)nc12 [Compound 224] | 10 to 100 nM
CCCCCn1c(N2CCC(C(=O)O)CC2)cc(=O)n2cc(-c3ccc(Cl)cc3)nc12 [Compound 225] | < 10 nM
CCCCCn1c(NCc2ccc(OC)cc2)cc(=O)n2cc(-c3ccc(Cl)cc3)nc12 [Compound 226] | 10 to 100 nM
CCCCCn1c(NCCN2CCN(C)CC2)cc(=O)n2cc(-c3ccc(Cl)cc3)nc12 [Compound 227] | < 10 nM
CCCCCn1c(NCc2cccn2C)cc(=O)n2cc(-c3ccc(Cl)cc3)nc12 [Compound 228] | 10 to 100 nM
CCCCCn1c(NCc2ccccn2)cc(=O)n2cc(-c3ccc(Cl)cc3)nc12 [Compound 229] | 10 to 100 nM
CCCCCn1c(N(C)CCC)cc(=O)n2cc(-c3ccc(Cl)cc3)nc12 [Compound 230] | < 10 nM
CCCCCn1c(N(C)C)cc(=O)n2cc(-c3ccc(Cl)cc3)nc12 [Compound 231] | < 10 nM
CCCCCn1c(N2CCN(C)CC2)cc(=O)n2cc(-c3ccc(Cl)cc3)nc12 [Compound 232] | < 10 nM
CCCCCn1c(NCc2nccs2)cc(=O)n2cc(-c3ccc(Cl)cc3)nc12 [Compound 233] | 10 to 100 nM
CCCCCn1c(N2CCOCC2)cc(=O)n2cc(-c3ccc(Cl)cc3)nc12 [Compound 234] | < 10 nM
CCCCCn1c(NCCN(C)C)cc(=O)n2cc(-c3ccc(Cl)cc3)nc12 [Compound 235] | 10 to 100 nM
CCCCCn1c(NCCNC(C)=O)cc(=O)n2cc(-c3ccc(Cl)cc3)nc12 [Compound 236] | 10 to 100 nM
CCCCCn1c(NCc2ccc(N(C)C)cc2)cc(=O)n2cc(-c3ccc(Cl)cc3)nc12 [Compound 237] | 10 to 100 nM
CCCCCn1c(NCCN2CCOCC2)cc(=O)n2cc(-c3ccc(Cl)cc3)nc12 [Compound 238] | < 10 nM
CCCCCn1c(N2C[C@H]3CC[C@@H](C2)O3)cc(=O)n2cc(-c3ccc(Cl)cc3)nc12 [Compound 239] | 10 to 100 nM

SMILES | IC50
CCCCCn1c(N2CCN(CC(=O)N(C)C)CC2)cc(=O)n2cc(-c3ccc(Cl)cc3)nc12 [Compound 240] | < 10 nM
CCCCCn1c(NCC(=O)N2CCN(C)CC2)cc(=O)n2cc(-c3ccc(Cl)cc3)nc12 [Compound 241] | < 10 nM
CCCCCn1c(N2CCN(CCCOC)CC2)cc(=O)n2cc(-c3ccc(Cl)cc3)nc12 [Compound 243] | < 10 nM
CCCCCn1c(N2CCC(N3CCOCC3)CC2)cc(=O)n2cc(-c3ccc(Cl)cc3)nc12 [Compound 244] | 10 to 100 nM
CCCCCn1c(N2CCN(c3cc(F)cc(F)c3)CC2)cc(=O)n2cc(-c3ccc(Cl)cc3)nc12 [Compound 245] | 10 to 100 nM
CCCCCn1c(N2CCCCC2)cc(=O)n2cc(-c3ccc(Cl)cc3)nc12 [Compound 246] | 10 to 100 nM
CCCCCn1c(N2CCCCCC2)cc(=O)n2cc(-c3ccc(Cl)cc3)nc12 [Compound 247] | 10 to 100 nM
CCCCCn1c(NC)cc(=O)n2cc(-c3ccc(Cl)cc3)nc12 [Compound 248] | 10 to 100 nM
CCCCCn1c(NCc2ccc3c(c2)OCO3)cc(=O)n2cc(-c3ccc(Cl)cc3)nc12 [Compound 249] | 10 to 100 nM
CCCCCn1c(NCCOC)cc(=O)n2cc(-c3ccc(Cl)cc3)nc12 [Compound 250] | 10 to 100 nM
CCCCCn1c(NCCc2ccccc2)cc(=O)n2cc(-c3ccc(Cl)cc3)nc12 [Compound 251] | 10 to 100 nM
CCCCCn1c(N(CCO)CCO)cc(=O)n2cc(-c3ccc(Cl)cc3)nc12 [Compound 253] | 10 to 100 nM
CCCCCn1c(N2CCNCC2)cc(=O)n2cc(-c3ccc(Cl)cc3)nc12 [Compound 254] | < 10 nM
CCCCCn1c(N2C(C)CCC2C)cc(=O)n2cc(-c3ccc(Cl)cc3)nc12 (centres unmarked) [Compound 255] | < 10 nM
CCCCCn1c(N2CCC[C@H]2C)cc(=O)n2cc(-c3ccc(Cl)cc3)nc12 [Compound 256] | < 10 nM
CCCCCn1c(N2CCC(C)C2)cc(=O)n2cc(-c3ccc(Cl)cc3)nc12 (centres unmarked) [Compound 257] | < 10 nM
CCCCCn1c(N2CCC[C@@H]2C)cc(=O)n2cc(-c3ccc(Cl)cc3)nc12 [Compound 258] | 10 to 100 nM
CCCCCn1c(N2CCCC2C)cc(=O)n2cc(-c3ccc(Cl)cc3)nc12 (centres unmarked) [Compound 259] | 10 to 100 nM
CCCCCn1c(OC2CCCC2)cc(=O)n2cc(-c3ccc(Cl)cc3)nc12 [Compound 260] | 10 to 100 nM
CCCCCn1c(OC(C)c2ccccc2)cc(=O)n2cc(-c3ccc(Cl)cc3)nc12 (centres unmarked) [Compound 261] | 100 to 1000 nM
CCCCCn1c(OC(CC(C)C)CC(C)C)cc(=O)n2cc(-c3ccc(Cl)cc3)nc12 [Compound 262] | 100 to 1000 nM
CCCCCCCCOc1cc(=O)n2cc(-c3ccc(Cl)cc3)nc2n1CCCCC [Compound 263] | 100 to 1000 nM
CCCCCn1c(Oc2cccnc2)cc(=O)n2cc(-c3ccc(Cl)cc3)nc12 [Compound 264] | 100 to 1000 nM
CCCCCn1c(Oc2ccc(-c3ccccc3)cc2)cc(=O)n2cc(-c3ccc(Cl)cc3)nc12 [Compound 265] | > 1000 nM

same assay, conditions: Inhibitory Activity (autotaxin enzyme inhibitory activity, IC50 class), Assay Method B (Test Example 2), human autotaxin

SMILES | IC50
CCCCCn1c(NC2C[C@@H]3CC[C@H]2C3)cc(=O)n2cc(-c3ccc(Cl)cc3)nc12 (some centres unmarked) [Compound 252] | 10 to 100 nM
